Test [1] relates to Lepinotus reticulatus. Kind of test: Insecticidal activity against Lepinotus reticulatus in compound pre-treated maize grains assessed as mortality at 8 ppm after 14 days (reference value: 61.1 +/-11.9%). In kind it is functional.
Test [2] relates to Lepinotus reticulatus. Kind of test: Insecticidal activity against Lepinotus reticulatus in compound pre-treated maize grains assessed as mortality at 8 ppm after 7 days (reference value: 34.4 +/-11.4%). In kind it is functional.
For test [3], the system named is Liposcelis entomophila. Briefly: Insecticidal activity against Liposcelis entomophila in compound pre-treated maize grains assessed as mortality at 8 ppm after 7 days (reference value: 15.6 +/-6.9%). In kind it is functional.
Test [4] deals with Liposcelis entomophila. Kind of test: Insecticidal activity against Liposcelis entomophila in compound pre-treated maize grains assessed as decrease in progeny production at 8 ppm after 30 days. In kind it is functional, organism-based.
Test [5] relates to Liposcelis bostrychophila. Briefly: Insecticidal activity against Liposcelis bostrychophila (booklice) in compound pre-treated maize grains assessed as decrease in progeny production at 8 ppm after 30 days. In kind it is functional, organism-based.
Test [6] has as its system Liposcelis bostrychophila. Briefly: Insecticidal activity against Liposcelis bostrychophila (booklice) in compound pre-treated maize grains assessed as mortality at 8 ppm after 7 days (reference value: 8.9 +/-2.6%). In kind it is functional.
For test [7], the system named is Liposcelis entomophila. Briefly: Insecticidal activity against Liposcelis entomophila in compound pre-treated maize grains assessed as mortality at 8 ppm after 14 days (reference value: 14.4 +/-4.1%). In kind it is functional.
Test [8] concerns Liposcelis bostrychophila. Briefly: Insecticidal activity against Liposcelis bostrychophila (booklice) in compound pre-treated maize grains assessed as mortality at 8 ppm after 14 days (reference value: 13.5 +/-5.3%). In kind it is functional.
For test [9], the system named is Liposcelis paeta. Kind of test: Insecticidal activity against Liposcelis paeta in compound pre-treated maize grains assessed as mortality at 8 ppm after 14 days (reference value: 14.1 +/-4.1%). In kind it is functional.
Test [10] relates to Lepinotus reticulatus. Briefly: Insecticidal activity against Lepinotus reticulatus in compound pre-treated maize grains assessed as decrease in progeny production at 8 ppm after 30 days. In kind it is functional, organism-based.
Test [11] concerns Liposcelis paeta. Kind of test: Insecticidal activity against Liposcelis paeta in compound pre-treated maize grains assessed as mortality at 8 ppm after 7 days (reference value: 13.3 +/-3.3%). In kind it is functional.

The term mortality denotes the percentage killed.

Calls of active or inactive are those of the source. The calls are words filed in the database; no cut-off is given here.

In the case of `CCN(CC)c1nc(C)cc(OP(=S)(OC)OC)n1` [PIRIMIPHOS METHYL], the mortality at 8 ppm (in the test on Lepinotus reticulatus [1]; in the test with Lepinotus reticulatus [2]; in the test on Liposcelis entomophila [3]; in test [6]; in the test on Liposcelis entomophila [7]; in test [8]) was 100% throughout. Further, the values for the mortality at 8 ppm with Liposcelis paeta [9] and with Liposcelis paeta [11] were 100% and 97.8%, respectively. In addition, the inhibition result (with Liposcelis entomophila [4]; in test [5]; with Lepinotus reticulatus [10]) was “Active” each time.
